Source: ChEMBL document CHEMBL3875184, “Biosynthetic approaches to creating bioactive fungal metabolites: Pathway engineering and activation of secondary metabolism” (Bioorg Med Chem Lett, 2016)

Key:
[1] = biological target: T1, Kinesin-like protein KIF11 (Homo sapiens, UniProt P52732); experiment: Inhibition of wild type eXact-tagged human Eg5 motor domain (1 to 368 residues) expressed in Escherichia coli BL21(DE3) assessed as reduction in microtubule-stimulated ATPase activity preincubated for 15 mins followed by microtubule addition in the presence of ATP after 6 mins by malachite green method
T1 sequence (P52732 whole entry): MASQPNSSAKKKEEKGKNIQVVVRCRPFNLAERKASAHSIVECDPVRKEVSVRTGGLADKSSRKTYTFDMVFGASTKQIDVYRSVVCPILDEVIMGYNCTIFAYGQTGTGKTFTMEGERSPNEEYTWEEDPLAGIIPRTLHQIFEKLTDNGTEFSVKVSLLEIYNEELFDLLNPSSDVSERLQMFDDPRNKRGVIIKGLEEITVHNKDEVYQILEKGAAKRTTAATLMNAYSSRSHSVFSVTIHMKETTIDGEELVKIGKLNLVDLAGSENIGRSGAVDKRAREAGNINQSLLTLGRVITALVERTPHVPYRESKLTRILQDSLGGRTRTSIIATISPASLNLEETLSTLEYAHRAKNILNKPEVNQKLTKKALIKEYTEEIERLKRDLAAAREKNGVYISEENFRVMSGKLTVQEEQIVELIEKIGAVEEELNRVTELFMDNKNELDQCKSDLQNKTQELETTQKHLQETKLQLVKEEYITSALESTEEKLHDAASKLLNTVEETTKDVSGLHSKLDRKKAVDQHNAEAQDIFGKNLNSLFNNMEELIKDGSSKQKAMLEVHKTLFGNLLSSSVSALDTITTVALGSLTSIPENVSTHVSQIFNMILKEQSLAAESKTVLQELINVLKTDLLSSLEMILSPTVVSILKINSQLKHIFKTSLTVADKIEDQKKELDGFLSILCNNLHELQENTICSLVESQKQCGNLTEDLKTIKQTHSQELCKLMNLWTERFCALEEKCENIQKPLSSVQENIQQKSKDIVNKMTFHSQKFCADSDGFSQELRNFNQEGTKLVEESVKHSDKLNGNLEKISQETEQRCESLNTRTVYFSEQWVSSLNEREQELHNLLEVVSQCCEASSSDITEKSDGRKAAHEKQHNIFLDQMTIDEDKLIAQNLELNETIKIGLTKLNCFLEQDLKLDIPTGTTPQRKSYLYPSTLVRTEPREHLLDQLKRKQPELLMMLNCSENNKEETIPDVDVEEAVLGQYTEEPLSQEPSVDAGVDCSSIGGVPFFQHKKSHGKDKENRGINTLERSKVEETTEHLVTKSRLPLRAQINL

[2] = Cytotoxicity against human HeLa cells assessed as reduction in cell viability after 48 hrs by SF-based cell counting method; assay type: functional
[3] = Inhibition of Drosophila Kinesin-1 assessed as reduction in microtubule-stimulated ATPase activity preincubated for 15 mins followed by microtubule addition in the presence of ATP after 6 mins by malachite green method
[4] = Cytotoxicity against human Jurkat cells; assay type: functional, cell-based
[5] = biological target: T2, Broad substrate specificity ATP-binding cassette transporter ABCG2 (Homo sapiens, UniProt Q9UNQ0); experiment: Inhibition of BCRP (unknown origin)-dependent ATPase activity at 50 uM after 30 mins by malachite green method; conditions: 0.5 h
T2 sequence (Q9UNQ0 whole entry): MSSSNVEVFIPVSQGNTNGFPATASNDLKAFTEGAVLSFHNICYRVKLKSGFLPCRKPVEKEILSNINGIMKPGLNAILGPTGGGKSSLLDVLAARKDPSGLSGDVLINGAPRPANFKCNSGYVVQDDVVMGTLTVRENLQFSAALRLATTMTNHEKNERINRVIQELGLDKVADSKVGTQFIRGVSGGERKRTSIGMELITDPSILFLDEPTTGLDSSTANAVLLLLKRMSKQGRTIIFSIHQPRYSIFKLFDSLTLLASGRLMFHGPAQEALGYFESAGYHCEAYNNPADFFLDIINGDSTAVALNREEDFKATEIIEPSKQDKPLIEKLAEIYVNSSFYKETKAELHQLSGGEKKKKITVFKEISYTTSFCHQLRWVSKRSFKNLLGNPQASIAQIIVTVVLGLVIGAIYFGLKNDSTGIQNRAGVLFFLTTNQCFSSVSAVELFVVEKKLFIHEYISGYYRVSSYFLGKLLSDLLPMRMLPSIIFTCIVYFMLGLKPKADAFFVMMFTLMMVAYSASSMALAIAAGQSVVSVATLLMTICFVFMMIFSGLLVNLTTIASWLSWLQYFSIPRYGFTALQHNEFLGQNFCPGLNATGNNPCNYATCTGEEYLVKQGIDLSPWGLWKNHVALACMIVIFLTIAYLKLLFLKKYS

[6] = Cytotoxicity against human MCF7 cells; assay type: functional, cell-based
[7] = Cytotoxicity against human HT-29 cells; assay type: functional, cell-based
[8] = biological target: T2, Broad substrate specificity ATP-binding cassette transporter ABCG2; experiment: Inhibition of BCRP in human K562 cells assessed as potentiation of SN38-mediated growth inhibition at 3 uM after 4 days by coulter counter method; assay type: cell-based; conditions: k562, 96 h
[9] = Cytotoxicity against human HeLa cells; assay type: functional, cell-based

Compound: CC(C)(O)[C@@H]1CC(=O)[C@]2(C)[C@H](CC[C@@]3(C)[C@H]2CC[C@H]2Cc4c([nH]c5ccccc45)[C@@]23C)O1
- IC50 [1]: 16.5 µM
- IC50 [2]: 2.9 µM
- IC50 [3]: > 100 µM

Compound: CC(C)(O)[C@@H]1C[C@@H](O)[C@]2(C)[C@H](CC[C@@]3(C)[C@H]2CC[C@H]2Cc4c([nH]c5ccccc45)[C@@]23C)O1 [TERPENDOLE E]
- IC50 [1]: 34.7 µM
- IC50 [2]: 12.1 µM
- IC50 [3]: > 100 µM

Compound: COc1ccc2c3c(n(CC=C(C)C)c2c1)[C@H](C=C(C)C)N1C(=O)[C@@H]2CCCN2C(=O)[C@]1(O)[C@H]3O
- IC50 [4]: 5 to 15 µM
- inhibition (INH) [5]: Active
- IC50 [6]: 5 to 15 µM
- IC50 [7]: 5 to 15 µM
- inhibition (INH) [8]: Active
- IC50 [9]: 5 to 15 µM

Compound: COc1ccc2c3c4n(c2c1)[C@@H](C=C(C)C)OOC(C)(C)C[C@@H]4N1C(=O)[C@@H]2CCCN2C(=O)[C@]1(O)[C@H]3O
- IC50 [4]: 20 to 30 µM
- inhibition (INH) [5]: Active
- IC50 [6]: 20 to 30 µM
- IC50 [7]: 20 to 30 µM
- inhibition (INH) [8]: Active
- IC50 [9]: 20 to 30 µM

Compound: COc1ccc2c3c([nH]c2c1)[C@H](C=C(C)C)N1C(=O)[C@@H]2CCCN2C(=O)[C@@H]1C3 [FUMITREMORGIN]
- inhibition (INH) [5]: Active
- inhibition (INH) [8]: Active

Compound: COc1ccc2c3c([nH]c2c1)[C@H](C=C(C)C)N1C(=O)[C@@H]2CCCN2C(=O)[C@]1(O)[C@H]3O
- inhibition (INH) [5]: Active
- inhibition (INH) [8]: Active

Compound: CC(C)=C[C@H]1c2[nH]c3ccccc3c2C[C@H]2C(=O)N3CCC[C@H]3C(=O)N21 [DEMETHOXYFUMITREMORGIN C]
- inhibition (INH) [5]: Active
- inhibition (INH) [8]: Active
